Measured values published in patent US20250230193A1, “CYCLIC COMPOUND HAVING SELECTIVE KRAS INHIBITORY EFFECT ON HRAS AND NRAS” (CHUGAI SEIYAKU KABUSHIKI KAISHA, priority 2022, published 2025).

Columns and labels:
[1] = target: GDP-bound NRAS wild-type protein (Homo sapiens, UniProt P01111); assay: Binding to NRAS by surface plasmon resonance (SPR), Single Cycle Kinetics; conditions: SPR, GDP-bound NRAS wild-type vs GDP-bound KRAS wild-type
[2] = target: GDP-bound HRAS wild-type protein (Homo sapiens, UniProt P01112); assay: Binding to HRAS by surface plasmon resonance (SPR), Single Cycle Kinetics; conditions: SPR, GDP-bound HRAS wild-type vs GDP-bound KRAS wild-type
GDP-bound HRAS wild-type protein, sequence (P01112 whole entry): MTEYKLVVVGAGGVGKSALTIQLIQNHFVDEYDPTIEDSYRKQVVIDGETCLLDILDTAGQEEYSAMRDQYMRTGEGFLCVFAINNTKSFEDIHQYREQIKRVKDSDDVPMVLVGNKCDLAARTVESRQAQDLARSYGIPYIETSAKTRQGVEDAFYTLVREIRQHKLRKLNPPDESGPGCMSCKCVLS

GDP-bound NRAS wild-type protein, sequence (P01111 whole entry): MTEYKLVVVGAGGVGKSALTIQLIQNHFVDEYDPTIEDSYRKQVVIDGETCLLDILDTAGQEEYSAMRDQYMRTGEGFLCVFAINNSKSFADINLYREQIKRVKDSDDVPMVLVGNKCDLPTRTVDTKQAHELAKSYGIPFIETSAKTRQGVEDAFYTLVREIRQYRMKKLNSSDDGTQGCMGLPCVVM

SMILES | NRAS/KRAS (ratio of KD value with respect to NRAS to KD value with respect to KRAS) [1] | HRAS/KRAS (ratio of KD value with respect to HRAS to KD value with respect to KRAS) [2]
CCO[C@@H]1C[C@H]2C(=O)NC3(CCCC3)C(=O)N(C)[C@@H](C3CCCC3)C(=O)N(C)[C@H](C(=O)N(C)C)CC(=O)N(C)[C@@H](CC(C)C)C(=O)N[C@@H]([C@@H](C)CC)C(=O)N(C)CC(=O)N(C)[C@H]3C/C=C\CCN(C3=O)[C@@H](Cc3ccc(C)cc3)C(=O)N(C)CC(=O)N[C@@H](CCc3ccc(C(F)(F)F)c(Cl)c3)C(=O)N2C1 [PP2195] | A (a compound having 10 or more and less than 20 is denoted as A) | A (a compound having 10 or more and less than 20 is denoted as A)
CCC[C@H]1C(=O)N[C@@H](C2CCCC2)C(=O)N(C)CC(=O)N(C)[C@H]2C/C=C\CCN(C2=O)[C@@H](Cc2ccc(C)cc2)C(=O)N(C)CC(=O)N[C@@H](CCc2ccc(C(F)(F)F)c(Cl)c2)C(=O)N2C[C@H](OCC)C[C@H]2C(=O)NC2(CC(C)(C)C2)C(=O)N(C)[C@@H](CC(C)(C)C)C(=O)N(C)[C@H](C(=O)N(C)C)CC(=O)N1C [PP2196] | A (a compound having 10 or more and less than 20 is denoted as A) | B (a compound having 3 or more and less than 10 is denoted as B)
CCO[C@@H]1C[C@H]2C(=O)NC3(CCCC3)C(=O)N(C)[C@@H](C3CCCC3)C(=O)N(C)[C@H](C(=O)N(C)C)CC(=O)N(C)[C@@H](CC(C)C)C(=O)N[C@@H]([C@@H](C)CC)C(=O)N(C)CC(=O)N(C)[C@H]3C/C=C\CCN(C3=O)[C@@H](Cc3ccc(C)cc3)C(=O)N(C)CC(=O)N[C@@H](CCc3ccc(C(F)(F)F)c(OC)c3)C(=O)N2C1 [PP2197] | A (a compound having 10 or more and less than 20 is denoted as A) | B (a compound having 3 or more and less than 10 is denoted as B)
CCC[C@H]1C(=O)N[C@@H](C2CCCC2)C(=O)N(C)CC(=O)N(C)[C@H]2C/C=C\CCN(C2=O)[C@@H](Cc2ccc(C)cc2)C(=O)N(C)CC(=O)N[C@@H](CCc2ccc(C(F)(F)F)c(Cl)c2)C(=O)N2C[C@H](OCC)C[C@H]2C(=O)NC2(CC(C)(C)C2)C(=O)N(C)[C@@H](C2CCCC2)C(=O)N(C)[C@H](C(=O)N(C)C)CC(=O)N1C [PP2198] | A (a compound having 10 or more and less than 20 is denoted as A) | A (a compound having 10 or more and less than 20 is denoted as A)
CCC[C@H]1C(=O)N[C@@H](C(CC)CC)C(=O)N(C)CC(=O)N(C)[C@H]2C/C=C\CCN(C2=O)[C@@H](Cc2ccc(C)cc2)C(=O)N(C)CC(=O)N[C@@H](CCc2ccc(C(F)(F)F)c(Cl)c2)C(=O)N2C[C@H](OCC)C[C@H]2C(=O)NC2(CC(C)(C)C2)C(=O)N(C)[C@@H](CC(C)C)C(=O)N(C)[C@H](C(=O)N(C)C)CC(=O)N1C [PP2202] | A (a compound having 10 or more and less than 20 is denoted as A) | A (a compound having 10 or more and less than 20 is denoted as A)
CCCOC[C@H]1C(=O)N[C@@H]([C@@H](C)CC)C(=O)N(C)CC(=O)N(C)[C@H]2C/C=C\CCN(C2=O)[C@@H](Cc2ccc(C)cc2)C(=O)N(C)CC(=O)N[C@@H](CCc2cc(F)c(C(F)(F)F)c(F)c2)C(=O)N2C[C@H](CCC)C[C@H]2C(=O)NC2(CC(C)(C)C2)C(=O)N(C)[C@@H](C2CCCC2)C(=O)N(C)[C@H](C(=O)N(C)C)CC(=O)N1C [PP2203] | A (a compound having 10 or more and less than 20 is denoted as A) | A (a compound having 10 or more and less than 20 is denoted as A)
CCC[C@H]1C(=O)N[C@@H](C(CC)CC)C(=O)N(C)CC(=O)N(C)[C@H]2C/C=C\CCN(C2=O)[C@@H](Cc2ccc(C)cc2)C(=O)N(C)CC(=O)N[C@@H](CCc2ccc(C(F)(F)F)c(Cl)c2)C(=O)N2C[C@H](OCC)C[C@H]2C(=O)NC2(CC(C)(C)C2)C(=O)N(C)[C@@H](CC(C)(C)C)C(=O)N(C)[C@H](C(=O)N(C)C)CC(=O)N1C [PP2207] | A (a compound having 10 or more and less than 20 is denoted as A) | A (a compound having 10 or more and less than 20 is denoted as A)
CCC[C@@H]1C[C@H]2C(=O)NC3(CC(C)(C)C3)C(=O)N(C)[C@@H](C3CCCC3)C(=O)N(C)[C@H](C(=O)N(C)C)CC(=O)N(C)[C@@H](CC)C(=O)N[C@@H]([C@@H](C)CC)C(=O)N(C)CC(=O)N(C)[C@H]3C/C=C\CCN(C3=O)[C@@H](Cc3ccc(C)cc3)C(=O)N(C)CC(=O)N[C@@H](CCc3cc(F)c(C(F)(F)F)c(F)c3)C(=O)N2C1 [PP2208] | A (a compound having 10 or more and less than 20 is denoted as A) | A (a compound having 10 or more and less than 20 is denoted as A)
CCC[C@H]1C(=O)N[C@@H](C(CC)CC)C(=O)N(C)CC(=O)N(C)[C@H]2C/C=C\CCN(C2=O)[C@@H](Cc2ccc(C)cc2)C(=O)N(C)CC(=O)N[C@@H](CCc2ccc(C(F)(F)F)c(Cl)c2)C(=O)N2C[C@H](OCC)C[C@H]2C(=O)NC2(CC(C)(C)C2)C(=O)N(C)[C@@H](C2CCCC2)C(=O)N(C)[C@H](C(=O)N(C)C)CC(=O)N1C [PP2209] | A (a compound having 10 or more and less than 20 is denoted as A) | A (a compound having 10 or more and less than 20 is denoted as A)
CCC[C@H]1C(=O)N[C@@H]([C@@H](C)CC)C(=O)N(C)CC(=O)N(C)[C@H]2C/C=C\CCN(C2=O)[C@@H](Cc2ccc(C)cc2)C(=O)N(C)CC(=O)N[C@@H](CCc2ccc(C(F)(F)F)c(Cl)c2)C(=O)N2C[C@H](C)C[C@H]2C(=O)NC2(CC(C)(C)C2)C(=O)N(C)[C@@H](C2CCCC2)C(=O)N(C)[C@H](C(=O)N(C)C)CC(=O)N1C [PP2210] | A (a compound having 10 or more and less than 20 is denoted as A) | B (a compound having 3 or more and less than 10 is denoted as B)
CCC[C@H]1C(=O)N[C@@H]([C@@H](C)CC)C(=O)N(C)CC(=O)N(C)[C@H]2C/C=C\CCN(C2=O)[C@@H](Cc2ccc(C)cc2)C(=O)N(C)CC(=O)N[C@@H](CCc2ccc(C(F)(F)F)c(Cl)c2)C(=O)N2C[C@H](CC)C[C@H]2C(=O)NC2(CC(C)(C)C2)C(=O)N(C)[C@@H](C2CCCC2)C(=O)N(C)[C@H](C(=O)N(C)C)CC(=O)N1C [PP2212] | A (a compound having 10 or more and less than 20 is denoted as A) | B (a compound having 3 or more and less than 10 is denoted as B)
CCC[C@@H]1C[C@H]2C(=O)NC3(CC(C)(C)C3)C(=O)N(C)[C@@H](C3CCCC3)C(=O)N(C)[C@H](C(=O)N(C)C)CC(=O)N(C)[C@@H](CCC)C(=O)N[C@@H]([C@@H](C)CC)C(=O)N(C)CC(=O)N(C)[C@H]3C/C=C\CCN(C3=O)[C@@H](Cc3ccc(C)cc3)C(=O)N(C)CC(=O)N[C@@H](CCc3ccc(C(F)(F)F)c(Cl)c3)C(=O)N2C1 [PP2214] | A (a compound having 10 or more and less than 20 is denoted as A) | A (a compound having 10 or more and less than 20 is denoted as A)
CCC[C@H]1C(=O)N[C@@H]([C@@H](C)CC)C(=O)N(C)CC(=O)N(C)[C@H]2C/C=C\CCN(C2=O)[C@@H](Cc2ccc(C)cc2)C(=O)N(C)CC(=O)N[C@@H](CCc2cc(F)c(C(F)(F)F)c(F)c2)C(=O)N2C[C@H](CC)C[C@H]2C(=O)NC2(CCCC2)C(=O)N(C)[C@@H](C2CCCC2)C(=O)N(C)[C@H](C(=O)N(C)C)CC(=O)N1C [PP2216] | A (a compound having 10 or more and less than 20 is denoted as A) | A (a compound having 10 or more and less than 20 is denoted as A)
CCCOC[C@H]1C(=O)N[C@@H]([C@@H](C)CC)C(=O)N(C)CC(=O)N(C)[C@H]2C/C=C\CCN(C2=O)[C@@H](Cc2ccc(C)cc2)C(=O)N(C)CC(=O)N[C@@H](CCc2cc(F)c(C(F)(F)F)c(F)c2)C(=O)N2C[C@H](CC)C[C@H]2C(=O)NC2(CCCC2)C(=O)N(C)[C@@H](C2CCCC2)C(=O)N(C)[C@H](C(=O)N(C)C)CC(=O)N1C [PP2218] | A (a compound having 10 or more and less than 20 is denoted as A) | A (a compound having 10 or more and less than 20 is denoted as A)
CCC[C@H]1C(=O)N[C@@H]([C@H](C)CC)C(=O)N(C)CC(=O)N(C)[C@H]2C/C=C\CCN(C2=O)[C@@H](Cc2ccc(C)cc2)C(=O)N(C)CC(=O)N[C@@H](CCc2ccc(C(F)(F)F)c(Cl)c2)C(=O)N2C[C@H](OCC)C[C@H]2C(=O)NC2(CC(C)(C)C2)C(=O)N(C)[C@@H](CC(C)(C)C)C(=O)N(C)[C@H](C(=O)N(C)C)CC(=O)N1C [PP2219] | A (a compound having 10 or more and less than 20 is denoted as A) | A (a compound having 10 or more and less than 20 is denoted as A)
CC[C@@H]1C[C@H]2C(=O)NC3(CCC3)C(=O)N(C)[C@@H](C3CCCC3)C(=O)N(C)[C@H](C(=O)N(C)C)CC(=O)N(C)[C@@H](CC(C)C)C(=O)N[C@@H]([C@@H](C)CC)C(=O)N(C)CC(=O)N(C)[C@H]3C/C=C\CCN(C3=O)[C@@H](Cc3ccc(C)cc3)C(=O)N(C)CC(=O)N[C@@H](CCc3cc(F)c(C(F)(F)F)c(F)c3)C(=O)N2C1 [PP2220] | A (a compound having 10 or more and less than 20 is denoted as A) | A (a compound having 10 or more and less than 20 is denoted as A)
